From patent US12458647B2, “Macrocyclic derivative and use thereof” (Guangzhou Joyo Pharmatech Co., Ltd., priority 2022, dated 2025)

Tests used:
[1] = system: human lung bronchial benign NCI—H727 cells; experiment: In vivo pharmacodynamic study, NCI-H727 subcutaneous xenograft tumor model in BALB/c nude mice; details: gavage once daily
Procedure: To study the in vivo efficacy of a compound of the present disclosure on human lung bronchial benign NCI—H727 cells in a subcutaneous xenograft tumor model in BALB/c nude mice.
Laboratory animals: Female BALB/c nude mice, 6-8 weeks old, weighing 18-22 g; supplier Beijing Vital River Laboratory Animal Technology Co., Ltd.
(1) Cell culture: Human lung bronchial benign tumor cells were cultured in vitro in a monolayer, and the culture conditions were 10% fetal bovine serum added to Gibco RMPI1640 medium, incubated at 37° C. in a 5% CO2 incubator. Routine passage was performed twice a week with trypsin-EDTA for digestion. When the cell saturation was 80%-90% and the required number was reached, the cells were collected, counted, and inoculated.
(2) Tumour cell inoculation and grouping: 0.2 mL (2×10^6) of NCI—H727 cells (Matrigel was added in a volume ratio of 1:1) were inoculated subcutaneously into the right back of each mouse, and dosing was initiated when the mean tumor volume reached approximately 134 mm^3, with 6 animals in each group.
The vehicle was 5% DMSO/10% solutol/85% water. Control group: The vehicle was administered twice daily by gavage at a dose of 10 μL/g; treatment group: After dissolving the test compound in the vehicle, the compound was administered by gavage once daily.
(3) The tumor diameter was measured with a vernier caliper twice weekly, and the tumor volume(V) was calculated. The formula is: V=0.5a×b^2, where a and b are the long and short diameters of the tumor, respectively. The tumor inhibitory efficacy of the test compound was evaluated by the tumor growth inhibition rate (TGI). The calculation formula is: TGI %=1−(Mean tumor volume at the end of dosing in a treatment group−Mean tumor volume at the start of dosing in this treatment group)/(Mean tumor volume at the end of treatment in the vehicle control group−Mean tumor volume at the start of treatment in the vehicle control group)×100%.

AsPC-1 cells = experiment: In vitro AsPC-1 cell proliferation experiment (10 days, 3D CellTiter-Glo); assay type: cell-based; details: 10 days culture
Procedure: RPMI1640 medium, penicillin/streptomycin antibiotics were purchased from Gibco, and fetal bovine serum was purchased from Hyclone. 3D CellTiter-Glo (cell viability chemiluminescent detection reagent) reagent was purchased from Promega. The AsPC-1 cell line was purchased from ATCC, Envision multilabel plate reader (PerkinElmer).
AsPC-1 cells were seeded in an ultra-low adsorption 96-well U-shaped plate, with 80 μL of cell suspension per well, containing 1,000 AsPC-1 cells. The plate was incubated overnight in a carbon dioxide incubator.
The test compound was diluted by 5-fold to 8 concentrations with a pipette, i.e., from 2 mM to 25.6 nM and replicate wells were set up for the experiment. 78 μL of culture medium was added to the intermediate plate, then 2 μL of the gradient diluted compound was transferred into each well of the intermediate plate according to the corresponding position. After mixing well, 20 μL of each well was transferred to the cell plate. […] Another cell plate was prepared, and the signal value was read as the maximum value (the maximum value in the following equation) on the day of dosing for data analysis.
100 μL of cell viability chemiluminescent detection reagent was added to the cell plate and incubated at room temperature for 30 minutes to stabilize the luminescence signal. A multilabel plate reader was used for reading. […]

A375 cell line = experiment: In vitro cell proliferation experiment (5 days), A375 (wild-type independent cell line); assay type: cell-based; details: A375, 5 days; read-out: Inhibitory Activity IC50
Procedure: (§1) RPMI 1640 medium, DMEM, Ham's F12 medium, F12K medium, IMDM and penicillin/streptomycin antibiotics were purchased from Gibco, fetal bovine serum was purchased from Hyclone, Envision multilabel plate reader (PerkinElmer). […]
(§2) The test compound was diluted by 5-fold to 8 concentrations with a pipette, i.e., from 2 mM to 25.6 nM, and replicate wells were set up for the experiment. […] Another cell plate was prepared, and the signal value was read as the maximum value (the maximum value in the following equation) on the day of dosing for data analysis.
(§3) 50 μL of cell viability chemiluminescent detection reagent was added to the cell plate and incubated at room temperature for 30 minutes to stabilize the luminescence signal. A multilabel plate reader was used for reading. […]

A549 cells = experiment: In vitro cell proliferation experiment (5 days), A549; assay type: cell-based; details: A549, 5 days; read-out: Inhibitory Activity IC50
Procedure: as §1, §2, §3

[2] = 25 mg/kg on Days 1-6 and 1 mg/kg on Days 7-21, Day 21

IC50 (AsPC-1 cells): 1 nM | IC50 (A375 cell line): > 6 µM | IC50 (A549 cells): 4.1 nM
Compound: CCn1c(-c2cc(N3CCN(C)CC3)cnc2C(C)OC)c2c3cc(ccc31)-c1csc(n1)CC(NC(=O)C1C(C)C1C)C(=O)N1NC(C(=O)OCC(C)(C)C2)C2CC1C2 (single isomer, unassigned) [Compound 6A]
Tumour Volume (mm^3) Day 1 ([1]; 5 mg/kg, Day 1): 134.6 mm^3 | Tumour Volume (mm^3) Day 7 ([1]; 5 mg/kg, Day 7): 86.5 mm^3 | Tumour Volume (mm^3) Day 14 ([1]; 5 mg/kg, Day 14): 78.5 mm^3 | TGI (%) ([1]; 5 mg/kg, Day 21): 104.4% | Tumour Volume (mm^3) Day 21 ([1]; 5 mg/kg, Day 21): 51.6 mm^3 | Tumour Volume (mm^3) Day 1 ([1]; 25 mg/kg on Days 1-6 and 1 mg/kg on Days 7-21, Day 1): 134.5 mm^3 | Tumour Volume (mm^3) Day 7 ([1]; 25 mg/kg on Days 1-6 and 1 mg/kg on Days 7-21, Day 7): 76.8 mm^3 | Tumour Volume (mm^3) Day 14 ([1]; 25 mg/kg on Days 1-6 and 1 mg/kg on Days 7-21, Day 14): 71.1 mm^3 | TGI (%) [1, 2]: 103.2% | Tumour Volume (mm^3) Day 21 [1, 2]: 75.1 mm^3
